Test results as given in PubChem BioAssay (NCI).
Values joined by “and” are separate entries in the source; they are usually repeats but may differ in a detail not shown here. Equal entries are not always repeated.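 These data come from cells grown in 96-well plates and exposed to compound for 48 hours at five concentrations. Abbreviation: GI50, concentration required for 50% inhibition of growth. TGI is the concentration that stops growth completely.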

Tests used:
Test in all cases: DTP human tumour cell line panel, 48 h
[1] = tested on: RPMI-8226 leukemia
[2] = tested on: SK-OV-3 ovarian
[3] = tested on: OVCAR-8 ovarian
[4] = tested on: MCF7 breast
[5] = tested on: HCC-2998 colon
[6] = tested on: HCT-15 colon
[7] = tested on: LOX IMVI melanoma
[8] = tested on: IGROV1 ovarian
[9] = tested on: HS 578T breast
[10] = tested on: ACHN renal
[11] = tested on: HOP-62 NSCLC
[12] = tested on: K-562 leukemia
[13] = tested on: KM12 colon
[14] = tested on: NCI-H460 lung
[15] = tested on: SW-620 colon
[16] = tested on: MALME-3M melanoma
[17] = tested on: CCRF-CEM leukemia
[18] = tested on: M14 melanoma
[19] = tested on: MOLT-4 leukemia
[20] = tested on: NCI-H23 lung
[21] = tested on: NCI/ADR-RES ovarian
[22] = tested on: HCT-116 colon
[23] = tested on: RXF 393 renal
[24] = tested on: SF-268 CNS
[25] = tested on: SR leukemia
[26] = tested on: MDA-MB-435
[27] = tested on: SF-539 CNS
[28] = tested on: A498 renal
[29] = tested on: SK-MEL-28 melanoma
[30] = tested on: UACC-257 melanoma
[31] = tested on: U251 CNS
[32] = tested on: OVCAR-5 ovarian
[33] = tested on: HL-60(TB) leukemia
[34] = tested on: HT29 colon
[35] = tested on: UO-31 renal
[36] = tested on: 786-0 renal
[37] = tested on: SK-MEL-5 melanoma
[38] = tested on: MDA-MB-231 breast
[39] = tested on: EKVX NSCLC
[40] = tested on: SF-295 CNS
[41] = tested on: TK-10 renal
[42] = tested on: OVCAR-4 ovarian
[43] = tested on: MDA-N
[44] = tested on: BT-549 breast
[45] = tested on: SK-MEL-2 melanoma
[46] = tested on: SNB-75 CNS
[47] = tested on: OVCAR-3 ovarian
[48] = tested on: A549 NSCLC
[49] = tested on: SN12C renal
[50] = tested on: SNB-19 CNS
[51] = tested on: UACC-62 melanoma
[52] = tested on: DU-145 prostate
[53] = tested on: HOP-92 NSCLC
[54] = tested on: NCI-H522 lung
[55] = tested on: CAKI-1 renal
[56] = tested on: PC-3 prostate
[57] = tested on: T-47D breast
[58] = tested on: NCI-H226 lung
[59] = tested on: COLO 205 colon

**Q.** c1ccc(-c2cccc(-c3ccccn3)n2)nc1 was tested. Which TGI [1] did it give?
**A.** > 10000 nM and 95100 nM

**Q.** What about the GI50 [2] of the same compound?
**A.** 89.5 nM

**Q.** What about the TGI [2] of the same compound?
**A.** 2050 nM and 2420 nM

**Q.** And the GI50 [3]?
**A.** 145 nM

**Q.** And the TGI [4]?
**A.** > 10000 nM

**Q.** What about the GI50 [5] of the same compound?
**A.** 94.4 nM

**Q.** And the GI50 [6]?
**A.** 54.6 nM

**Q.** And the TGI [6]?
**A.** 1400 nM and 2980 nM

**Q.** What about the GI50 [7] of the same compound?
**A.** 57.3 nM

**Q.** What about the TGI [7] of the same compound?
**A.** 12500 nM

**Q.** What about the GI50 [8] of the same compound?
**A.** 76.5 nM

**Q.** And the TGI [8]?
**A.** 2970 nM and 11700 nM

**Q.** And the GI50 [9]?
**A.** 2550 nM

**Q.** And the TGI [9]?
**A.** > 10000 nM and 47600 nM

**Q.** And the GI50 [10]?
**A.** 56.7 nM

**Q.** And the TGI [10]?
**A.** 1750 nM and 1890 nM

**Q.** And the GI50 [11]?
**A.** 130 nM

**Q.** And the TGI [11]?
**A.** 1720 nM and 12800 nM

**Q.** What about the TGI [12] of the same compound?
**A.** > 100000 nM

**Q.** And the GI50 [13]?
**A.** 75.1 nM

**Q.** What about the TGI [13] of the same compound?
**A.** 2270 nM and 13700 nM

**Q.** What about the GI50 [14] of the same compound?
**A.** 60.4 nM

**Q.** What about the TGI [14] of the same compound?
**A.** 1350 nM and 2510 nM

**Q.** What about the GI50 [15] of the same compound?
**A.** 198 nM

**Q.** And the TGI [15]?
**A.** 4540 nM and 14000 nM

**Q.** And the TGI [16]?
**A.** 1110 nM and 3480 nM

**Q.** And the GI50 [17]?
**A.** 58 nM

**Q.** What about the TGI [17] of the same compound?
**A.** > 100000 nM

**Q.** What about the GI50 [18] of the same compound?
**A.** 92.4 nM

**Q.** And the TGI [18]?
**A.** 434 nM and 1070 nM

**Q.** And the GI50 [19]?
**A.** 65.8 nM

**Q.** And the TGI [19]?
**A.** > 100000 nM

**Q.** And the TGI [20]?
**A.** > 10000 nM and 64200 nM

**Q.** What about the GI50 [21] of the same compound?
**A.** 161 nM

**Q.** What about the TGI [21] of the same compound?
**A.** 1220 nM and 8760 nM

**Q.** What about the TGI [22] of the same compound?
**A.** 1560 nM

**Q.** And the TGI [23]?
**A.** 1410 nM and 7320 nM

**Q.** And the GI50 [24]?
**A.** 81.4 nM

**Q.** What about the TGI [24] of the same compound?
**A.** > 10000 nM and 15800 nM

**Q.** And the GI50 [25]?
**A.** 60 nM

**Q.** What about the TGI [26] of the same compound?
**A.** 2280 nM and 18400 nM

**Q.** What about the GI50 [27] of the same compound?
**A.** 243 nM

**Q.** What about the TGI [27] of the same compound?
**A.** 2070 nM and 13300 nM

**Q.** What about the GI50 [28] of the same compound?
**A.** 1380 nM

**Q.** What about the TGI [28] of the same compound?
**A.** 2310 nM and 3270 nM

**Q.** And the GI50 [29]?
**A.** 182 nM

**Q.** And the TGI [29]?
**A.** 3250 nM and 15000 nM

**Q.** What about the GI50 [30] of the same compound?
**A.** 337 nM

**Q.** What about the TGI [30] of the same compound?
**A.** 1650 nM and 5460 nM

**Q.** And the GI50 [31]?
**A.** 90.1 nM

**Q.** What about the TGI [31] of the same compound?
**A.** 2860 nM and 13400 nM

**Q.** And the GI50 [32]?
**A.** 403 nM

**Q.** What about the TGI [32] of the same compound?
**A.** 3720 nM and 22000 nM

**Q.** What about the GI50 [33] of the same compound?
**A.** 112 nM

**Q.** What about the GI50 [34] of the same compound?
**A.** 84.8 nM

**Q.** And the TGI [34]?
**A.** 3050 nM and 15700 nM

**Q.** And the GI50 [35]?
**A.** 37.3 nM

**Q.** What about the TGI [35] of the same compound?
**A.** 425 nM and 1290 nM

**Q.** And the GI50 [36]?
**A.** 113 nM

**Q.** What about the TGI [36] of the same compound?
**A.** 2870 nM and 2030 nM

**Q.** And the GI50 [37]?
**A.** 122 nM

**Q.** What about the TGI [37] of the same compound?
**A.** 680 nM and 1180 nM

**Q.** And the GI50 [38]?
**A.** 86 nM

**Q.** And the TGI [38]?
**A.** 1890 nM and 15200 nM

**Q.** And the GI50 [39]?
**A.** 111 nM

**Q.** What about the TGI [39] of the same compound?
**A.** 4890 nM and 10900 nM

**Q.** What about the GI50 [40] of the same compound?
**A.** 78.5 nM

**Q.** And the TGI [40]?
**A.** 791 nM and 3870 nM

**Q.** And the GI50 [41]?
**A.** 59.5 nM

**Q.** And the TGI [41]?
**A.** 3000 nM and 7890 nM

**Q.** What about the GI50 [42] of the same compound?
**A.** 83.9 nM

**Q.** What about the TGI [42] of the same compound?
**A.** 3480 nM and 13700 nM

**Q.** And the TGI [43]?
**A.** 2190 nM

**Q.** What about the GI50 [44] of the same compound?
**A.** 225 nM

**Q.** What about the TGI [44] of the same compound?
**A.** 13600 nM

**Q.** And the GI50 [45]?
**A.** 425 nM

**Q.** And the TGI [45]?
**A.** 3640 nM and 18600 nM

**Q.** What about the GI50 [46] of the same compound?
**A.** 234 nM

**Q.** What about the TGI [46] of the same compound?
**A.** > 10000 nM and 17700 nM

**Q.** And the GI50 [47]?
**A.** 110 nM

**Q.** What about the GI50 [48] of the same compound?
**A.** 225 nM

**Q.** What about the TGI [48] of the same compound?
**A.** 4910 nM and 13000 nM

**Q.** What about the GI50 [49] of the same compound?
**A.** 220 nM

**Q.** And the TGI [49]?
**A.** 9770 nM and 16200 nM

**Q.** What about the GI50 [50] of the same compound?
**A.** 293 nM

**Q.** And the TGI [50]?
**A.** > 10000 nM and 16700 nM

**Q.** And the GI50 [51]?
**A.** 243 nM

**Q.** And the TGI [51]?
**A.** 2930 nM and 4240 nM

**Q.** What about the GI50 [52] of the same compound?
**A.** 86.3 nM

**Q.** What about the TGI [52] of the same compound?
**A.** 15600 nM

**Q.** And the GI50 [53]?
**A.** 3570 nM

**Q.** And the TGI [53]?
**A.** 19800 nM

**Q.** What about the TGI [54] of the same compound?
**A.** > 10000 nM and 19300 nM

**Q.** And the TGI [55]?
**A.** 1610 nM

**Q.** And the GI50 [56]?
**A.** 170 nM

**Q.** What about the TGI [56] of the same compound?
**A.** 3760 nM and 15400 nM

**Q.** What about the GI50 [57] of the same compound?
**A.** 343 nM

**Q.** And the TGI [57]?
**A.** > 10000 nM and 12700 nM

**Q.** What about the GI50 [58] of the same compound?
**A.** 275 nM

**Q.** What about the TGI [58] of the same compound?
**A.** 4850 nM

**Q.** What about the GI50 [59] of the same compound?
**A.** 37.6 nM

**Q.** And the TGI [59]?
**A.** 1670 nM and 5840 nM
